# Literature values as cited in PubChem BioAssay AID1259409 (Chemical Carcinogenesis Research Information System (CCRIS), 2018).
# System: rodent chemically induced tumor inhibition, incidence and multiplicity
# Test: CCRIS tumor inhibitor studies
smiles,measurement,setting,value
O=C(OC[C@@H]1O[C@H](OC(=O)c2cc(O)c(O)c(OC(=O)c3cc(O)c(O)c(O)c3)c2)[C@@H](OC(=O)c2cc(O)c(O)c(OC(=O)c3cc(O)c(O)c(O)c3)c2)[C@H](OC(=O)c2cc(O)c(O)c(OC(=O)c3cc(O)c(O)c(O)c3)c2)[C@H]1OC(=O)c1cc(O)c(O)c(OC(=O)c2cc(O)c(O)c(O)c2)c1)c1cc(O)c(O)c(OC(=O)c2cc(O)c(O)c(O)c2)c1,"tumour outcome (control, treated, inhibition, significance)","Carcinogen: 7,12-DIMETHYLBENZ[A]ANTHRACENE, 57-97-6, Dose [Inhibitor]: 0, 17 MG 2/WK FOR 20 WK APPLIED 20 MIN PRIOR TO EACH PROMOTER DOSE (STUDY DURATION: 22 WK), Route [Inhibitor]: DERMAL, Species: (36,?)/(36,?), Strain/Sex: CF-1/FEMALE, Target Tissue: Type of Lesion: SKIN: PAPILLOMA, Dose [Carcinogen]: 25.6 UG IN 0.2 ML ACETONE ONCE, Promoter: 12-O-TETRADECANOYLPHORBOL-13-ACETATE, 16561-29-8","90%, 65%, 28%, not calculated"
same,"tumour outcome (control, treated, inhibition, significance)","Carcinogen: 7,12-DIMETHYLBENZ[A]ANTHRACENE, 57-97-6, Dose [Inhibitor]: 0, 20 UMOL IN 0.4 ML ACETONE 20 MIN PRIOR TO EACH PROMOTER DOSE (STUDY DURATION: 47 WK), Route [Inhibitor]: DERMAL, Species: MOUSE, Strain/Sex: CF-1/FEMALE, Target Tissue: Type of Lesion: SKIN: CARCINOMA, Dose [Carcinogen]: 100 NMOL IN 0.2 ML ACETONE ONCE","66%, 0%, 100%, not calculated"
same,"tumour outcome (control, treated, inhibition, significance)","Carcinogen: 7,12-DIMETHYLBENZ[A]ANTHRACENE, 57-97-6, Dose [Inhibitor]: 0, 20 UMOL IN 0.4 ML ACETONE 20 MIN PRIOR TO EACH PROMOTER DOSE (STUDY DURATION: 47 WK), Route [Inhibitor]: DERMAL, Species: MOUSE, Strain/Sex: CF-1/FEMALE, Target Tissue: Type of Lesion: SKIN: PAPILLOMA, Dose [Carcinogen]: 100 NMOL IN 0.2 ML ACETONE ONCE","94%, 23%, 76%, not calculated"
same,"tumour outcome (control, treated, inhibition, significance)","Carcinogen: 7,12-DIMETHYLBENZ[A]ANTHRACENE, 57-97-6, Dose [Inhibitor]: 0, 34 MG 2/WK FOR 2 WK APPLIED 20 MIN PRIOR TO EACH TPA DOSE (STUDY DURATION: 22 WK), Route [Inhibitor]: DERMAL, Species: MOUSE, Strain/Sex: SENCAR/FEMALE, Target Tissue: Type of Lesion: SKIN: PAPILLOMA, Dose [Carcinogen]: 6.4 UG IN 0.2 ML ACETONE ONCE, Promoter: 12-O-TETRADECANOYLPHORBOL-13-ACETATE, 16561-29-8, MEZEREIN, 34807-41-5, Promoter: 12-O-TETRADECANOYLPHORBOL-13-ACETATE, 16561-29-8, MEZEREIN, 34807-41-5","90%, 96%, -7%, not calculated"
same,"tumour outcome (control, treated, inhibition, significance)","Carcinogen: 7,12-DIMETHYLBENZ[A]ANTHRACENE, 57-97-6, Dose [Inhibitor]: 0, 34 MG 2/WK FOR 18 WK APPLIED 20 MIN PRIOR TO EACH MEZEREIN DOSE (STUDY DURATION: 22 WK), Route [Inhibitor]: DERMAL, Species: MOUSE, Strain/Sex: SENCAR/FEMALE, Target Tissue: Type of Lesion: SKIN: PAPILLOMA, Dose [Carcinogen]: 6.4 UG IN 0.2 ML ACETONE ONCE, Promoter: 12-O-TETRADECANOYLPHORBOL-13-ACETATE, 16561-29-8, MEZEREIN, 34807-41-5, Promoter: 12-O-TETRADECANOYLPHORBOL-13-ACETATE, 16561-29-8, MEZEREIN, 34807-41-5","90%, 25%, 72%, not calculated"
same,"tumour outcome (control, treated, inhibition, significance)","Carcinogen: (+/-)-7BETA,8ALPHA-DIHYDROXY-9ALPHA,10ALPHA-EPOXY-7,8,9,10- TETRAHYDROBENZO[A]PYRENE, 58917-67-2, Dose [Inhibitor]: 3000 NMOL IN 0.2 ML ACETONE 1/D FOR 7 D (STUDY DURATION: 18 WK), Route [Inhibitor]: DERMAL, Species: MOUSE, Strain/Sex: SENCAR/FEMALE, Target Tissue: Type of Lesion: SKIN: TUMOR, Dose [Carcinogen]: 200 NMOL IN 0.2 ML ACETONE ONCE 30 MIN POST LAST INHIBITOR DOSE, Promoter: 12-O-TETRADECANOYLPHORBOL-13-ACETATE, 16561-29-8","75%, 60%, 20%, not significant"
same,"tumour outcome (control, treated, inhibition, significance)","Carcinogen: BENZO[A]PYRENE, 50-32-8, Dose [Inhibitor]: 1% AQUEOUS SOLUTION 3/WK FOR A TOTAL OF 80 APPLICATIONS FOLLOWED BY AT LEAST 365 D OBSERVATION PERIOD (STUDY DURATION: 5, Route [Inhibitor]: DERMAL, Species: MOUSE, Strain/Sex: CD-1/MALE, FEMALE, Target Tissue: Type of Lesion: SKIN: CARCINOMA, SQUAMOUS CELL PAPILLOMA, SEBACEOUS ADENOMA, BASAL CELL TUMOR, KERATOACANTHOMA, Dose [Carcinogen]: 0.53-0.6 MG ONCE PRIOR TO START OF AGENT TREATMENT, Promoter: NONE USED","17/50 (34%), 15/50 (30%), 12%, not significant"
same,"tumour outcome (control, treated, inhibition, significance)","Carcinogen: BENZO[A]PYRENE, 50-32-8, Dose [Inhibitor]: 1% IN DIET BEGINNING 45 D PRIOR TO CARCINOGEN (STUDY DURATION: 36 WK), Route [Inhibitor]: ORAL, Species: MOUSE, Strain/Sex: SENCAR/FEMALE, Target Tissue: Type of Lesion: FORESTOMACH: PAPILLOMA, Dose [Carcinogen]: 100 MG/KG IN 0.2 ML CORN OIL 2/WK FOR 4 WK, Promoter: NONE USED","27/30 (90%), 19/30 (63%), 30%, not calculated"
same,"tumour outcome (control, treated, inhibition, significance)","Carcinogen: BENZO[A]PYRENE, 50-32-8, Dose [Inhibitor]: 1% IN DIET BEGINNING 45 D PRIOR TO CARCINOGEN (STUDY DURATION: 36 WK), Route [Inhibitor]: ORAL, Species: MOUSE, Strain/Sex: SENCAR/FEMALE, Target Tissue: Type of Lesion: LUNG: ADENOMA, Dose [Carcinogen]: 100 MG/KG IN 0.2 ML CORN OIL ONCE, Promoter: NONE USED","27/30 (90%), 18/30 (60%), 33%, not calculated"
same,"tumour outcome (control, treated, inhibition, significance)","Carcinogen: DIMETHYLBENZ[A]ANTHRACENE, 57-97-6, Dose [Inhibitor]: 1% IN DIET BEGINNING 45 D PRIOR TO CARCINOGEN DOSE AND CONTINUED FOR 10 D POST CARCINOGEN (STUDY DURATION: 16 WK), Route [Inhibitor]: ORAL, Species: MOUSE, Strain/Sex: SENCAR/FEMALE, Target Tissue: Type of Lesion: SKIN: PAPILLOMA, Dose [Carcinogen]: 10 UG IN 0.2 ML ACETONE ONCE, Promoter: TPA, 16561-29-8","30/30 (100%), 30/30 (100%), 0%, not calculated"
same,"tumour outcome (control, treated, inhibition, significance)","Carcinogen: UV IRRADIATION, Dose [Inhibitor]: 0, 200 UG IN 200 µL ACETONE 3/WK FOR DURATION OF STUDY BEGINNING 2 WK PRIOR TO UV IRRADIATION (STUDY DURATION: 29 WK), Route [Inhibitor]: DERMAL, Species: MOUSE, Strain/Sex: BALB/CANNTACFBR/FEMALE, Target Tissue: Type of Lesion: SKIN: TUMOR, Dose [Carcinogen]: 6.94 J/M2/SEC 30 MIN/D 5 D/WK FOR 17.5 WK, Promoter: NONE USED","75%, 42%, 44%, p=0.028"
